Columns and labels:
[1] = target: T1, TRH-R (human TRH receptor) (Homo sapiens, UniProt P34981); assay: intracellular Ca2+ release, calcium […] dye, FLIPR; type: cell-based; conditions: read-out: EC50 for Ca signaling
T1 construct: gene TRHR; full-length human cDNA subcloned into pcDNA3.1(+)/hygromycin; stably expressed in HEK-EM 293 cells, 16,000 receptors/cell
T1 sequence (P34981 1-398): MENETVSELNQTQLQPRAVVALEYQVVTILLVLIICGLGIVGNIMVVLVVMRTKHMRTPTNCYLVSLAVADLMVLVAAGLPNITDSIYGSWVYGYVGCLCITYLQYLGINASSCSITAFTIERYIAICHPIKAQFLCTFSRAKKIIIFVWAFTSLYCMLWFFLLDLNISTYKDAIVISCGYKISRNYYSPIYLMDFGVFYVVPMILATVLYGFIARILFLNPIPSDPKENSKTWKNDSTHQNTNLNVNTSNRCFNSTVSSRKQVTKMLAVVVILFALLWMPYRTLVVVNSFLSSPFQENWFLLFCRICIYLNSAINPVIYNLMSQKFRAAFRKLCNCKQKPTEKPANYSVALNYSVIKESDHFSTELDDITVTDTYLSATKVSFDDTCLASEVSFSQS

[2] = target: T1, TRH-R (human TRH receptor); assay: [3H]MeTRH competition binding, intact HEK-EM […] cells; type: cell-based

Q: With CN1C(=O)C[C@@H](C(=O)N[C@@H](Cc2c[nH]cn2)C(=O)N2CCC[C@H]2C(N)=O)NC1=O [TAL, N-[[(4S)-Hexahydro-1-methyl-2,6-dioxo-4-pyrimidinyl]carbonyl]-L-histidyl-L-prolinamide] as the compound, how does the EC50 [1] read?
A: 0.036 µM

Q: What about the IC50 [2] of the same compound?
A: 0.91 µM
